The subject of data set [1] is pigs experiencing induced cardiac arrest. Kind of data set: Pigs in induced VF cardiac arrest, untreated for 20 minutes, given inhaled isoflurane at the start of conventional manual CPR. The class given is in vivo. As for the experimental part:
As an example, Applicants conducted experiments on pigs experiencing induced cardiac arrest. Cardiac arrest was induced by generating ventricular fibrillation (VF) and pigs were left in untreated cardiac arrest for 20 minutes. At the initiation of conventional manual CPR, inhaled isoflurane at 4% was introduced via an anesthesia machine for a total of 3 minutes. The anesthesia was then turned off. After a total of 4 minutes of CPR the animals were then shocked back into a stable perfusing heart rhythm and the dose of isoflurane anesthesia was restarted at 1% to provide for anesthesia during the recovery period of the animals. […] Cardiac function based upon an assessment of the left ventricular (LV) ejection fraction (EF) after 1 and 4 hours was normal, as determined by echocardiography, and post resuscitation inotropic support was unnecessary due to the absence of hemodynamic instability. Two of the 4 animals had undetectable levels of markers of cardiac injury (creatinine phosphokinase MB and cardiac troponin [cTnI]), while 2 of the 4 animals had mild elevations of markers of cardiac injury (creatinine phosphokinase MB and cTnI) at 4 hours post ROSC (6.8±9 and 5.8±11 in ng/mL, respectively). […] Although the duration of untreated VF in the control animals was 5 minutes shorter, post ROSC left ventricular function was severely compromised (EF: 33±9%) and there was significant elevation of CKMB and cTnI at 4 hours post ROSC (26.5±13.7 and 31.2±14.3, p<0.05) compared to isoflurane treated animals resuscitated after 20 minutes of untreated VF. In the absence of anesthesia during CPR as described above, Applicants were been unable to resuscitate pigs after 20 minutes of untreated arrest with conventional CPR. These findings represent an important advance in the field of CPR.

Data set [2] has as its system animals after cardiac arrest and ROSC. Description: Second cardiac arrest/CPR experiment, sevoflurane-treated (SPoC) vs control: left ventricle ejection fraction post ROSC. Conditions: *P<0.05 vs controls. The class given is in vivo, pigs. As for the experimental part:
(§1) Another experiment was conducted with similar results. In that experiment, the hearts were subsequently removed from 5 animals from each group 15 minutes post-ROSC for mitochondrial function testing. Compared with the control group, all mitochondrial function tests were improved in the sevoflurane treated animals.
(§2) Table 1 illustrates the mitochondrial function for complex I substrates pyruvate (P, 10 mM) and malate (M, 10 mM) and complex II substrate succinate (Suc, 10 mM) in control hearts vs. sevoflurane-treated hearts (SPoC). LVEF refers to the left ventricle ejection fraction percentage at 12 min post return of spontaneous circulation (ROSC). RCI refers to the respiratory control index (state 3/state 4 respiration). ATP refers to adenosine triphosphate synthesis and Ca Ret refers to calcium retention capacity until mitochondrial transition pore opening. The asterisk (*) refers to P of less than 0.05.

Data set [3] has as its system heart mitochondria (complex I and complex II substrates). Description: Mitochondrial function testing of hearts removed 15 minutes post-ROSC. In kind it is in vivo, pigs. As for the experimental part: as §1, §2
The conditions of data set [4]: at 37° C.; cited from earlier work.
Where [5] appears, read: 4 hours post ROSC, 2 of 4 animals undetectable, 2 of 4 mild elevations.
Where [6] appears, read: pyruvate 10 mM and malate 10 mM.

Marks after values point to notes of the source that are not given here.

Turning to `FC(F)OC(Cl)C(F)(F)F` (centres unmarked) [isoflurane], in data set [1] (setting [5]), the “cardiac troponin cTnI (marker of cardiac injury)” value was found to be 5.8 ± 11 ng/mL and the “creatinine phosphokinase MB (marker of cardiac injury)” value came to 6.8 ± 9 ng/mL. Further, the “post resuscitation inotropic support” value in data set [1] (absence of hemodynamic instability) is “unnecessary”. Also, the “cardiac function based on left ventricular (LV) ejection fraction (EF)” value in data set [1] (after 1 and 4 hours, by echocardiography) was “normal”. The “shocks needed to achieve return of spontaneous circulation (ROSC)” value in data set [1] (all 4 animals, 20 min untreated VF, isoflurane 4% for 3 min, after 4 min CPR and one dose of 0.5 mg epinephrine) is on record as 1-2 shocks.

As to `FCOC(C(F)(F)F)C(F)(F)F` [sevoflurane], the “LVEF (%) 12 min Post ROSC” value in data set [2] is on record as 53 ± 16* %. The “all mitochondrial function tests compared with the control group” value in data set [3] (5 animals per group, hearts removed 15 min post-ROSC) is given as “improved”. The “RCI P/M (respiratory control index, state 3/state 4 respiration)” value in data set [3] (complex I substrates pyruvate 10 mM and malate 10 mM, hearts removed 15 min post-ROSC) is 11.4 ± 0.5*. The “RCI Suc (respiratory control index)” value in data set [3] (complex II substrate succinate 10 mM, hearts removed 15 min post-ROSC) is 4.5 ± 0.2*. For the same compound, in data set [3] (setting [6]), the “ATP P/M (adenosine triphosphate synthesis)” value was 148.5 ± 24.8* nm/min/mg and the “Ca Ret P/M (calcium retention capacity until mitochondrial transition pore opening)” value is 318.8 ± 45.0* nm/min/mg. Moreover, in data set [3] (succinate 10 mM), the “ATP Suc (adenosine triphosphate synthesis)” value is recorded as 132.3 ± 18.4* nm/min/mg and the “Ca Ret Suc (calcium retention capacity until mitochondrial transition pore opening)” value was 474.0 ± 58.8* nm/min/mg. Also, in data set [4], the “blood gas partition coefficient” value is reported as 0.65.

The record behind these values is patent publication US20140048061A1, “SYSTEM AND METHOD FOR ADMINISTERING ANESTHETICS WHILE PERFORMING CPR” (priority 2012, published 2014).
